Where two headings read alike, the source gives them in different places.
Experiments:
[1] = test system: rice blast fungus (Pyricularia grisea); format: in vivo; conditions: flowable diluted to 100 ppm, 10 mL per pot foliage spray on paddy rice; inoculated day after; 7 days after inoculation
[2] = test system: rice sheath blight fungus (Thanatephorus cucumeris); assay: Test Example 6: control effect against rice sheath blight by box treatment (flowable formulation); conditions: flowable 5,000 ppm, 50 mL irrigation of nursery box, paddy rice; inoculated after 3 weeks; 7 days after inoculation
[3] = test system: rice sheath blight fungus (Thanatephorus cucumeris); assay: Test Example 8: control effect against rice sheath blight by box treatment (granule); conditions: 5 g of granule on nursery box, paddy rice; inoculated after 3 weeks; 7 days after inoculation
[4] = test system: rice sheath blight fungus (Thanatephorus cucumeris); assay: Test Example 10: control effect against rice sheath blight by water surface application (flowable formulation); conditions: flowable 1,000 ppm, 1 mL dripped in paddy water, inoculated after 1 week, 7 days after inoculation
[5] = test system: barley powdery mildew fungus (Erysiphe graminis); assay: Test Example 2: control effect against barley powdery mildew by foliage application; format: in vivo; conditions: wettable powder diluted to 100 ppm, 10 mL per pot foliage spray on barley; inoculated day after; 7 days after inoculation
[6] = test system: rice blast fungus (Pyricularia grisea); format: in vivo; conditions: flowable 1,000 ppm, 1 mL dripped in paddy water, inoculated after 1 week, 7 days after inoculation
[7] = test system: rice blast fungus (Pyricularia grisea); format: in vivo; conditions: 5 g of granule on nursery box, paddy rice; inoculated after 3 weeks; 7 days after inoculation
[8] = test system: rice blast fungus (Pyricularia grisea); format: in vivo; conditions: flowable 5,000 ppm, 50 mL irrigation of nursery box, paddy rice; inoculated after 3 weeks; 7 days after inoculation

Compound | evaluation value of control effect (from control value, number of lesions) [1] | evaluation value of control effect (from control value, lesion height) [2] | evaluation value of control effect (from control value, lesion height) [3] | evaluation value of control effect (from control value, lesion height) [4] | evaluation value of control effect (from control value, lesion area percentage) [5] | evaluation value of control effect (from control value, number of lesions) [6] | evaluation value of control effect (from control value, number of lesions) [7] | evaluation value of control effect (from control value, number of lesions) [8]
Cc1nn(C)c(F)c1C(=O)N(C(=O)c1snc(Cl)c1Cl)c1ccccc1C(C)CC(C)C (stereo not drawn) [1-131, 3,4-Dichloro-N-{2-(1,3-dimethylbutyl)phenyl}-N-(5-fluoro-1,3-dimethylpyrazole-4-carbonyl)isothiazole-5-carboxamide] | 4 | 5 | 5 | 5 | 4 |  |  | 
Cc1nn(C)c(F)c1C(=O)N(C(=O)c1scnc1C(F)(F)F)c1ccccc1C(C)CC(C)C (stereo not drawn) [1-336] | 4 |  |  |  | 4 |  |  | 
Cc1nnsc1C(=O)N(C(=O)c1cn(C)nc1C(F)F)c1ccccc1-c1cc(F)c(F)c(F)c1 [1-368] | 4 | 5 | 5 | 5 | 4 |  |  | 
Cn1cc(C(=O)N(C(=O)c2scnc2C(F)(F)F)c2ccccc2-c2cc(F)c(F)c(F)c2)c(C(F)F)n1 [1-371] | 4 |  |  |  |  |  |  | 
Cc1nn(C)c(Cl)c1C(=O)N(C(=O)c1snc(Cl)c1Cl)c1ccccc1C(C)CC(C)C (stereo not drawn) [1-378] | 4 |  |  |  |  | 5 | 5 | 5
Cc1nc(C(F)F)c(C(=O)N(C(=O)c2c(C(F)F)nn(C)c2Cl)c2ccccc2C(C)CC(C)C)s1 (stereo not drawn) [7-272] | 4 |  |  |  | 4 |  |  | 
Cc1nc(C(F)(F)F)c(C(=O)N(C(=O)c2snc(Cl)c2Cl)c2c(Br)cc(OC(F)(F)F)cc2Br)s1 [7-279] | 4 | 5 | 5 | 5 | 4 |  |  | 
Cc1nc(C(F)(F)F)c(C(=O)N(C(=O)c2sc(C)nc2C(F)(F)F)c2c(Br)cc(OC(F)(F)F)cc2Br)s1 [7-286] | 4 | 5 | 5 | 5 | 4 |  |  | 
CC(C)CC(C)c1ccccc1N(C(=O)c1cccnc1C(C)F)C(=O)c1snc(Cl)c1Cl (stereo not drawn) [13-57] | 4 |  |  |  |  | 5 | 5 | 5
Cc1nc(C(F)F)c(C(=O)N(C(=O)c2cn(C)nc2C(F)F)c2cccc3c2C(C)CC3(C)C)s1 (stereo not drawn) [25-97] | 4 | 5 | 5 | 5 | 4 |  |  | 
Cc1nn(C)c(Cl)c1C(=O)N(C(=O)c1scnc1C(F)F)c1cccc2c1C(C)OC2(C)C (stereo not drawn) [25-119] | 4 |  |  |  |  |  |  | 
Cc1nn(C)c(Cl)c1C(=O)N(C(=O)c1scnc1C(F)(F)F)c1cccc2c1C(C)OC2(C)C (stereo not drawn) [25-120] | 4 |  |  |  |  |  |  | 
Cc1nc(C(F)(F)F)c(C(=O)N(C(=O)c2c(C)nn(C)c2Cl)c2cccc3c2C(C)OC3(C)C)s1 (stereo not drawn) [25-122] | 4 |  |  |  |  |  |  | 
Cc1nc(C(F)F)c(C(=O)N(C(=O)c2cccc3nnsc23)c2cccc3c2C(C)OC3(C)C)s1 (stereo not drawn) [26-62] |  | 5 | 5 | 5 | 4 | 5 | 5 | 5
Cc1nc(C(F)F)c(C(=O)N(C(=O)c2sc(C)nc2C(F)(F)F)c2cccc3c2C(C)CC3(C)C)s1 (stereo not drawn) [26-73] | 4 | 5 | 5 | 5 | 4 |  |  | 
Cc1nc(C(F)F)c(C(=O)N(C(=O)c2sc(C)nc2C(F)F)c2cccc3c2C(C)OC3(C)C)s1 (stereo not drawn) [26-78] |  | 5 | 5 | 5 | 4 | 5 | 5 | 5
Cc1nc(C(F)F)c(C(=O)N(C(=O)c2scnc2C(F)(F)F)c2cccc3c2C(C)OC3(C)C)s1 (stereo not drawn) [26-82] | 4 | 5 | 5 | 5 |  |  |  | 
Cc1nc(C(F)F)c(C(=O)N(C(=O)c2cc(Cl)nc(Cl)c2)c2cccc3c2C(C)CC3(C)C)s1 (stereo not drawn) [26-89] | 4 | 5 | 5 | 5 | 4 |  |  | 
Cc1nc(C(F)F)c(C(=O)N(C(=O)c2cc(Cl)no2)c2cccc3c2C(C)OC3(C)C)s1 (stereo not drawn) [26-91] |  | 5 | 5 | 5 | 4 | 5 | 5 | 5
CC1OC(C)(C)c2cccc(N(C(=O)c3cccnc3C(F)F)C(=O)c3snc(Cl)c3Cl)c21 (stereo not drawn) [27-4] |  | 5 | 5 | 5 | 4 | 5 | 5 | 5
Cc1nnsc1C(=O)N(C(=O)c1cccnc1C(F)F)c1cccc2c1C(C)OC2(C)C (stereo not drawn) [27-16] |  | 5 | 5 | 5 | 4 | 5 | 5 | 5

— patent US20210007356A1, “IMIDE DERIVATIVE AND FUNGICIDE CONTAINING SAID DERIVATIVE AS ACTIVE INGREDIENT” (HOKKO CHEMICAL INDUSTRY CO., LTD., priority 2018, published 2021)
